Measured values: ChEMBL document CHEMBL4177654, “Synthesis, antifungal and antitumor activity of two new types of imidazolin-2-ones” (Bioorg Med Chem, 2017)
Values belong to the compound of their own block, whether it stands above or below them. Active and inactive are the calls of the source. The calls are words filed in the database; no cut-off is given here.

Columns and labels:
Botrytis cinerea [1] = test: Antifungal activity against Botrytis cinerea assessed as inhibition of mycelium growth at 25 ug/ml after 48 hrs relative to control; format: functional
Botrytis cinerea [2] = test: Antifungal activity against Botrytis cinerea assessed as inhibition of spore germination at 50 ug/ml after 6 hrs by microscopic analysis relative to control; format: functional
HeLa = test: Inhibition of mTORC2 in human HeLa cells assessed as decrease in AKT phosphorylation at S473 residue preincubated for 1 hr followed by EGF1 stimulation after 30 mins by Western blot analysis; format: cell-based
Botrytis cinerea [3] = test: Antifungal activity against Botrytis cinerea assessed as inhibition of spore germination at 5 ug/ml after 6 hrs by microscopic analysis relative to control; format: functional
Botrytis cinerea [4] = test: Antifungal activity against Botrytis cinerea assessed as inhibition of mycelium growth at 5 ug/ml after 48 hrs relative to control; format: functional
[5] = Inhibition of mTORC2 in human HeLa cells assessed as decrease in AKT phosphorylation at S473 residue preincubated for 1 hr followed by EGF1 stimulation by ELISA; format: cell-based

Structure (SMILES): C=C(C)n1c(=O)n(C(=O)CCl)c2cc(Br)cnc21
inhibition at 25 µg/mL (Botrytis cinerea [1]): 69% | inhibition at 50 µg/mL (Botrytis cinerea [2]): 74.9% | inhibition (HeLa): Active

Structure (SMILES): C=C(C)n1c(=O)n(C(C)=O)c2ccc([N+](=O)[O-])cc21
inhibition at 25 µg/mL (Botrytis cinerea [1]): 97.7% | inhibition at 50 µg/mL (Botrytis cinerea [2]): 100%

Structure (SMILES): C=C(C)n1c(=O)n(C(=O)CCCC)c2ccc([N+](=O)[O-])cc21
inhibition at 50 µg/mL (Botrytis cinerea [2]): 51.8%

Structure (SMILES): C=C(C)n1c(=O)n(C(=O)CCCCC)c2cc(Br)cnc21
inhibition at 25 µg/mL (Botrytis cinerea [1]): 42.5% | inhibition at 50 µg/mL (Botrytis cinerea [2]): 23.5%

Structure (SMILES): C=C(C)n1c(=O)n(C(=O)CCC)c2ccc([N+](=O)[O-])cc21
inhibition at 50 µg/mL (Botrytis cinerea [2]): 52.4%

Structure (SMILES): C=C(C)n1c(=O)n(C(=O)CCCC)c2cc(Br)cnc21
inhibition at 25 µg/mL (Botrytis cinerea [1]): 60.1% | inhibition at 50 µg/mL (Botrytis cinerea [2]): 59.2%

Structure (SMILES): C=C(C)n1c(=O)n(C(=O)Cc2ccccc2)c2cc(Br)cnc21
inhibition at 25 µg/mL (Botrytis cinerea [1]): 66.7% | inhibition at 50 µg/mL (Botrytis cinerea [2]): 59.2% | inhibition (HeLa): Active

Structure (SMILES): C=C(C)n1c(=O)n(C(=O)c2ccccc2Cl)c2ccc([N+](=O)[O-])cc21
inhibition at 25 µg/mL (Botrytis cinerea [1]): 13.6% | inhibition at 50 µg/mL (Botrytis cinerea [2]): 72.1%

Structure (SMILES): C=C(C)n1c(=O)n(C(=O)c2ccc(Cl)cc2)c2cc(Br)cnc21
inhibition at 25 µg/mL (Botrytis cinerea [1]): 54% | inhibition at 50 µg/mL (Botrytis cinerea [2]): 28.6%

Structure (SMILES): C=C(C)n1c(=O)n(C(=O)c2ccccc2)c2cc(Br)cnc21
inhibition at 25 µg/mL (Botrytis cinerea [1]): 37.2% | inhibition at 50 µg/mL (Botrytis cinerea [2]): 38.8%

Structure (SMILES): C=C(C)n1c(=O)n(C(=O)c2cccc(C)c2)c2cc(Br)cnc21
inhibition at 25 µg/mL (Botrytis cinerea [1]): 41.5% | inhibition at 50 µg/mL (Botrytis cinerea [2]): 17.4%

Structure (SMILES): C=C(C)n1c(=O)n(C(=O)C2CC2)c2cc(Br)cnc21
inhibition at 25 µg/mL (Botrytis cinerea [1]): 92.8% | inhibition at 50 µg/mL (Botrytis cinerea [2]): 78.6%

Structure (SMILES): C=C(C)n1c(=O)n(C(=O)c2ccccc2Cl)c2cc(Br)cnc21
inhibition at 25 µg/mL (Botrytis cinerea [1]): 17.5% | inhibition at 50 µg/mL (Botrytis cinerea [2]): 13.3%

Structure (SMILES): C=C(C)n1c(=O)n(C(=O)CC)c2ccc([N+](=O)[O-])cc21
inhibition at 25 µg/mL (Botrytis cinerea [1]): 8.72% | inhibition at 50 µg/mL (Botrytis cinerea [2]): 49.6%

Structure (SMILES): C=C(C)n1c(=O)n(C(=O)c2ccccc2Cl)c2cc([N+](=O)[O-])ccc21
inhibition at 50 µg/mL (Botrytis cinerea [2]): 59.2%

Structure (SMILES): C=C(C)n1c(=O)n(C(=O)CC)c2cc([N+](=O)[O-])ccc21
inhibition at 50 µg/mL (Botrytis cinerea [2]): 45.2%

Structure (SMILES): CO/C=C(/C(=O)OC)c1ccccc1Oc1cc(Oc2ccccc2C#N)ncn1 [AZOXYSTROBIN]
inhibition at 5 µg/mL (Botrytis cinerea [3]): 92.1% | inhibition at 5 µg/mL (Botrytis cinerea [4]): 98.8%

Structure (SMILES): C=C(C)n1c(=O)n(C(=O)c2ccccc2C)c2cc([N+](=O)[O-])ccc21
inhibition at 50 µg/mL (Botrytis cinerea [2]): 60.8%

Structure (SMILES): C=C(C)n1c(=O)n(C(=O)CCCCCCC)c2cc(Br)cnc21
inhibition at 25 µg/mL (Botrytis cinerea [1]): 51.3% | inhibition at 50 µg/mL (Botrytis cinerea [2]): 49%

Structure (SMILES): C=C(C)n1c(=O)n(C(=O)CCCC)c2cc([N+](=O)[O-])ccc21
inhibition at 25 µg/mL (Botrytis cinerea [1]): 7.26% | inhibition at 50 µg/mL (Botrytis cinerea [2]): 48.5%

Structure (SMILES): C=C(C)n1c(=O)n(C(C)=O)c2cc([N+](=O)[O-])ccc21
inhibition at 25 µg/mL (Botrytis cinerea [1]): 33.5% | inhibition at 50 µg/mL (Botrytis cinerea [2]): 85.2%

Structure (SMILES): C=C(C)n1c(=O)n(C(=O)CCCCCCC)c2ccc([N+](=O)[O-])cc21
inhibition at 50 µg/mL (Botrytis cinerea [2]): 32.5%

Structure (SMILES): C=C(C)n1c(=O)n(C(=O)CCC)c2cc([N+](=O)[O-])ccc21
inhibition at 50 µg/mL (Botrytis cinerea [2]): 46.7%

Structure (SMILES): C=C(C)n1c(=O)n(C(=O)CCCCC)c2ccc([N+](=O)[O-])cc21
inhibition at 50 µg/mL (Botrytis cinerea [2]): 55.9%

Structure (SMILES): C=C(C)n1c(=O)n(C(=O)CCCCCCC)c2cc([N+](=O)[O-])ccc21
inhibition at 50 µg/mL (Botrytis cinerea [2]): 30.7%

IC50 [5]: 22.8 nM
Structure (SMILES): NC1(c2ccc(-c3nc4ccn5c(=O)[nH]nc5c4cc3-c3ccccc3)cc2)CCC1 [MK-2206]

Structure (SMILES): C=C(C)n1c(=O)n(C(=O)c2cccc(Cl)c2)c2cc([N+](=O)[O-])ccc21
inhibition at 25 µg/mL (Botrytis cinerea [1]): 10.7% | inhibition at 50 µg/mL (Botrytis cinerea [2]): 63.4%

Structure (SMILES): C=C(C)n1c(=O)n(C(=O)CCC)c2cc(Br)cnc21
inhibition at 25 µg/mL (Botrytis cinerea [1]): 97.3% | inhibition at 50 µg/mL (Botrytis cinerea [2]): 99%

Structure (SMILES): C=C(C)n1c(=O)n(C(=O)CC)c2cc(Br)cnc21
inhibition at 25 µg/mL (Botrytis cinerea [1]): 94.2% | inhibition at 50 µg/mL (Botrytis cinerea [2]): 98%

Structure (SMILES): C=C(C)n1c(=O)n(C(=O)c2cccc(C)c2)c2cc([N+](=O)[O-])ccc21
inhibition at 50 µg/mL (Botrytis cinerea [2]): 60.2%

Structure (SMILES): C=C(C)n1c(=O)n(C(=O)c2ccccc2C)c2cc(Br)cnc21
inhibition at 25 µg/mL (Botrytis cinerea [1]): 53.7% | inhibition at 50 µg/mL (Botrytis cinerea [2]): 49%

Structure (SMILES): C=C(C)n1c(=O)n(C(=O)c2ccccc2C)c2ccc([N+](=O)[O-])cc21
inhibition at 25 µg/mL (Botrytis cinerea [1]): 18.5% | inhibition at 50 µg/mL (Botrytis cinerea [2]): 68.3%

Structure (SMILES): C=C(C)n1c(=O)n(C(=O)CCCCC)c2cc([N+](=O)[O-])ccc21
inhibition at 25 µg/mL (Botrytis cinerea [1]): 5.65% | inhibition at 50 µg/mL (Botrytis cinerea [2]): 42.9%

Structure (SMILES): C=C(C)n1c(=O)n(C(=O)CCCCCC)c2cc(Br)cnc21
inhibition at 25 µg/mL (Botrytis cinerea [1]): 44.9% | inhibition at 50 µg/mL (Botrytis cinerea [2]): 59.2%

Structure (SMILES): C=C(C)n1c(=O)n(C(=O)c2cccc(Cl)c2)c2ccc([N+](=O)[O-])cc21
inhibition at 25 µg/mL (Botrytis cinerea [1]): 16.7% | inhibition at 50 µg/mL (Botrytis cinerea [2]): 86.2%

Structure (SMILES): COC(=O)Nc1nc2ccccc2[nH]1 [CARBENDAZIM]
inhibition at 5 µg/mL (Botrytis cinerea [4]): 94.2%

Structure (SMILES): C=C(C)n1c(=O)n(C(=O)c2cccc(C)c2)c2ccc([N+](=O)[O-])cc21
inhibition at 25 µg/mL (Botrytis cinerea [1]): 11.4% | inhibition at 50 µg/mL (Botrytis cinerea [2]): 65.8%

Structure (SMILES): C=C(C)n1c(=O)n(C(=O)c2cccc(Cl)c2)c2cc(Br)cnc21
inhibition at 25 µg/mL (Botrytis cinerea [1]): 55.8% | inhibition at 50 µg/mL (Botrytis cinerea [2]): 59.2%
